Target: Dipeptidyl peptidase 4 (Homo sapiens, UniProt P27487)
Test: Inhibition of DPP4 (unknown origin) assessed as hydrolysis rate using Gly-pro-p-nitroanilide as substrate measured after 20 mins incubation by fluorometric assay

Dipeptidyl peptidase 4, sequence (P27487 whole entry): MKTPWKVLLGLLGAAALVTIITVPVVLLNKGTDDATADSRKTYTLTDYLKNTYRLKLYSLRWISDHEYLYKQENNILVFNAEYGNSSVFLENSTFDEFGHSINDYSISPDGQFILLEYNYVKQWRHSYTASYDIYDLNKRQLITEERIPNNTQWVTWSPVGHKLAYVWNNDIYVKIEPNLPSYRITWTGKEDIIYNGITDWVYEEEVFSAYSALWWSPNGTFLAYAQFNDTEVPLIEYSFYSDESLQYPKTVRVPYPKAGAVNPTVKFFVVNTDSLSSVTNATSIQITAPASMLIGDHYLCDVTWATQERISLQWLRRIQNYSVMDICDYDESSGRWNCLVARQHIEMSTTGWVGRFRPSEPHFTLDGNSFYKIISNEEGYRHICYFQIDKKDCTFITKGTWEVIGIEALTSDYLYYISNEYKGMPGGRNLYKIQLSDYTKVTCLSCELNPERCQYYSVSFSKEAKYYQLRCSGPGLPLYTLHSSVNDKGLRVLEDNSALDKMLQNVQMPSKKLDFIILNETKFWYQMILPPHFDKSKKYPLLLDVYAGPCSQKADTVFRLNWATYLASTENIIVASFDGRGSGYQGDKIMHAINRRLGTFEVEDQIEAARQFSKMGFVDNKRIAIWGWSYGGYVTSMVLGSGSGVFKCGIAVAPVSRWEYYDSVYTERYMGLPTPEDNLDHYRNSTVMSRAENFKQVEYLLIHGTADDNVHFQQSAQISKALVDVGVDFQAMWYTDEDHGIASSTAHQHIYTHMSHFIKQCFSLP

SMILES	IC50 [nM]
CC1=C(CC(=O)N2CCCC(N)C2)C(C)NC(=O)N1 (stereo not given)	1190
CC1=C(CC(=O)N2CCCC(N)C2)C(c2ccc(F)c(F)c2)NC(=O)N1 (stereo not given)	1040
Cc1nc(N2CCn3c(nnc3C(F)(F)F)C2)nc(C)c1CC(=O)O	226
CC1=C(CC(=O)N2CCn3c(nnc3C(F)(F)F)C2)C(c2ccc(F)c(F)c2)NC(=O)N1 (stereo not given)	1060
Cc1nc(N2CCCC(N)C2)nc(C)c1CC(=O)O (stereo not given)	1400
CC1=C(C(=O)O)C(c2ccc(F)c(F)c2)N=C(N)N1C(=O)CN1CCC[C@H]1C(=O)O (stereo not given in full)	1060

More lines, in order of falling IC50, values ahead:

IC50 [nM]	SMILES
1030	CC1=C(CC(=O)N2CCCC2C#N)C(C)NC(=O)N1 (stereo not given)
769	Cc1nc(N2Cc3cn(S(C)(=O)=O)nc3C2)nc(C)c1CC(=O)O
390	CC1=C(C(=O)O)C(c2ccc(F)c(F)c2)N=C(N)N1C(=O)CN1CCCC1C#N (stereo not given)
266	CC1=C(CC(=O)N2CCCC2C#N)C(c2ccc(F)c(F)c2)NC(=O)N1 (stereo not given)

Reference: ChEMBL document CHEMBL6127049, “Discovery of the selective and nanomolar inhibitor of DPP-4 more potent than sitagliptin by structure-guided rational design” (Eur J Med Chem, 2024)
